Source: patent publication US20060166900A1, “Salt of morphine-6-glucuronide” (CeNeS Limited, priority 2002, published 2006)

How the values were obtained:
Type in all cases: physicochemical
[1] = Visual appearance on storage (Example 3)
Experimental: (§1) Each test material was stored between 2-8*C prior to placing on stability. Each material was sub-divided into 900 mg aliquots, transferred to brown opaque HDPE plastic bottles and flushed with Argon prior to sealing. Sufficient samples were provided for each time point as well as spares for each storage condition. The samples were placed in appropriate incubators previously commissioned at storage conditions 25° C./60% RH, 40° C./75% RH and 60° C.
The samples were stored for analysis according to the following table: […]

[2] = Water content by Karl Fisher analysis on storage (Example 3)
Experimental: Water content (% w/w) by Karl Fisher analysis
as §1
Water Content by Karl Fisher Analysis
Water content was determined in duplicate on an aliquot of equilibrated material (approximately 100 mg) using a Tritrino 720 KFS Titrator.

[3] = Colour of solution by visible spectrophotometry on storage (Example 3); settings: 5% w/v solution in water
Experimental: Colour of solution by UV spectrophotometry.
as §1
Colour by Visible Spectrophotometry
A 5% w/v solution of test material was prepared in water and the absorbance measured at 420 nm in a 1 cm silica cell using a Unicam UV4 Visible/UV spectrophotometer.

[4] = Stability indicating HPLC assay and related substances on storage (Example 3)
Experimental: Assay (% w/w) and related substances determination
as §1
Testing Procedures Test for Identity Content and Impurities
Testing was performed in duplicate (2×25 mg) in accordance with a stability indicating HPLC assay method. The assay results were reported as M6G as is, M6G as the anhydrous, solvent free material and the anhydrous solvent free material corrected for the salt form using the relevant conversion factor.

## CN1CCC23c4c5ccc(O)c4OC2C(OC2OC(C(=O)O)C(O)C(O)C2O)C=CC3C1C5.CN1CCC23c4c5ccc(O)c4OC2C(OC2OC(C(=O)O)C(O)C(O)C2O)C=CC3C1C5.O=C(O)C=CC(=O)O (stereo not shown) [Morphine-6-glucuronide maleate]
[1]; 1 month, 25° C./60% RH
  Appearance: White crystalline powder
[1]; 1 month, 40° C./75% RH
  Appearance: Pale yellow crystalline powder
[1]; 1 month, 60° C.
  Appearance: Yellow crystalline powder
[1]; 3 months, 25° C./60% RH
  Appearance: Pale yellow crystalline powder
[1]; 3 months, 40° C./75% RH
  Appearance: Yellow crystalline powder
[1]; Initial
  Appearance: White crystalline powder
[2]; 1 month, 25° C./60% RH
  Moisture: 7.53 % w/w
[2]; 1 month, 40° C./75% RH
  Moisture: 7.60 % w/w
[2]; 1 month, 60° C.
  Moisture: 5.01 % w/w
[2]; 3 months, 25° C./60% RH
  Moisture: 7.14 % w/w
[2]; 3 months, 40° C./75% RH
  Moisture: 9.24 % w/w
[2]; Initial
  Moisture: 6.14 % w/w
[3]; 1 month, 25° C./60% RH
  Colour: 0.084 Abs@420 nm
[3]; 1 month, 40° C./75% RH
  Colour: 0.297 Abs@420 nm
[3]; 1 month, 60° C.
  Colour: 0.739 Abs@420 nm
[3]; 3 months, 25° C./60% RH
  Colour: 0.209 Abs@420 nm
[3]; 3 months, 40° C./75% RH
  Colour: 0.879 Abs@420 nm
[3]; Initial
  Colour: 0.017 Abs@420 nm
[4]; 1 month, 25° C./60% RH
  Known Related Substances HN33177: 0.76%
  Known Related Substances HN67003: 0.17%
  Known Related Substances HN75083: 0.05%
  M6G Assay, Anhydrous basis: 86.66 % w/w
  M6G Assay, As is basis: 80.27 % w/w
  M6G Assay, Corrected for the salt form: 97.56 % w/w
  Total Known: 0.98%
  Total Related Substances: 1.39%
  Total Unknown: 0.41%
[4]; 1 month, 40° C./75% RH
  Known Related Substances HN33177: 0.65%
  Known Related Substances HN67003: 0.94%
  Known Related Substances HN75076: 0.03%
  Known Related Substances HN75083: 0.03%
  Known Related Substances Morphine: 0.12%
  M6G Assay, Anhydrous basis: 83.28 % w/w
  M6G Assay, As is basis: 77.07 % w/w
  M6G Assay, Corrected for the salt form: 93.75 % w/w
  Total Known: 1.77%
  Total Related Substances: 4.80%
  Total Unknown: 3.03%
[4]; 1 month, 60° C.
  Known Related Substances HN33177: 0.50%
  Known Related Substances HN67003: 1.20%
  Known Related Substances HN75076: 0.14%
  Known Related Substances HN75083: 0.02%
  Known Related Substances Morphine: 0.32%
  M6G Assay, Anhydrous basis: 80.36 % w/w
  M6G Assay, As is basis: 76.46 % w/w
  M6G Assay, Corrected for the salt form: 90.47 % w/w
  Total Known: 2.18%
  Total Related Substances: 6.09%
  Total Unknown: 3.91%
[4]; 3 months, 25° C./60% RH
  Known Related Substances HN33177: 0.52%
  Known Related Substances HN67003: 0.58%
  Known Related Substances HN75083: 0.06%
  Known Related Substances Morphine: 0.04%
  M6G Assay, Anhydrous basis: 85.11 % w/w
  M6G Assay, As is basis: 80.04 % w/w
  M6G Assay, Corrected for the salt form: 95.81 % w/w
  Total Known: 1.20%
  Total Related Substances: 3.55%
  Total Unknown: 2.35%
[4]; 3 months, 40° C./75% RH
  Known Related Substances HN33177: 0.50%
  Known Related Substances HN67003: 1.68%
  Known Related Substances HN75076: 0.40%
  Known Related Substances Morphine: 0.43%
  M6G Assay, Anhydrous basis: 78.73 % w/w
  M6G Assay, As is basis: 72.37 % w/w
  M6G Assay, Corrected for the salt form: 88.63 % w/w
  Total Known: 3.01%
  Total Related Substances: 9.94%
  Total Unknown: 6.93%
  drop in assay compared to the initial values: around 10%
[4]; Initial
  Known Related Substances HN33177: 0.76%
  Known Related Substances HN67003: 0.04%
  Known Related Substances HN75083: 0.05%
  M6G Assay, Anhydrous basis: 88.28 % w/w
  M6G Assay, As is basis: 83.61 % w/w
  M6G Assay, Corrected for the salt form: 99.40 % w/w
  Total Known: 0.85%
  Total Related Substances: 0.85%
  Total Unknown: 0.00%
